Experimental data reported in patent US4610987A, “Imidazoquinazolin-2-one compounds” (Daiichi Seiyaku Co., Ltd., priority 1983, dated 1986).
Converted amounts (≈) assume the structure as drawn. Where two headings read alike, the source gives them in different places.

What was measured:
[1] = test system: platelet aggregation (rat platelet-rich-plasma); test: Test of Platelet Aggregation Inhibition (in vitro), rat PRP; type: cell-based, Wistar Imamichi rat; details: for IC50: Platelet, in vitro, rat blood
Experimental: (§1) The test was performed as follows in accordance with the method of Ashida et al, Thrombosis and Haemostasis, Vol. 40, 542 (1979).
(§2) Blood was taken by puncture from the heart of a Wistar Imamichi rat under anesthesia with pentobarbital into a syringe containing 1/10 volume of a 3.13% aqueous solution of sodium citrate dihydrate, and the citrated blood was centrifuged to obtain a platelet-rich-plasma (PRP). In the same manner, citrated blood was collected from the vein of a healthy human who had not taken aspirin or any other anti-inflammatory agent since before 10 days, followed by centrifugation to obtain PRP. 5 μl of each test compound was added to 0.445 ml of each of these PRP samples, and the system was warmed at 30° C. for 1 minute. 50 μl of an aggregation inducer (ADP or collagen) was then added thereto, and platelet aggregation was determined according to the method of Born, Nature, Vol. 194, 927 (1962).

[2] = target: human heart PDE I; test: Inhibitory activity on phosphodiesterase, heart PDE I (cGMP); type: biochemical; details: cGMP substrate
Experimental: (§3) Phosphodiesterase fractions were separated from 105,000×g of supernatant fractions from human platelets and heart by DEAE-cellulose column chromatography using the method of Timothy et al. (Arch. Biochem. Biophy. 196, 465-474, 1979) with minor modifications. These fractions were designated PDE I, PDE II and PDE III, depending upon the order of their emergence from the DEAE-cellulose column.
(§4) Phosphodiesterase activity was measured by the method of Thompson and Appleman (Biochemistry 10, 311-316, 1971) with slight modifications. The reaction mixture consisted of 25 mM of Tris-HCl (pH 7.4), 5 mM of MgCl2, 1 μM of [^3 H]-cAMP or cGMP (approximate 20,000 cpm), various concentrations of a test compound and the enzyme preparation. After incubation for 10 minutes at 30° C., the reaction was terminated by boiling the reaction mixture for 45 seconds. 5'-[^3 H]-AMP or GMP formed by phosphodiesterase was converted to [^3 H]adenosine or [^3 H]quanosine by snake venom (Botherop Atrox) containing 5'-nucleotidase and the product isolated by a cation exchange resin was counted in a liquid scintillation counter.

[3] = test system: circulatory system; test: Test of Influence on Circulatory System (blood pressure, heart beats); type: in vivo, SLC-Wistar rat; details: rat, 50 mg/Kg p.o.
Experimental: 5 or 6 male normal SLC-Wistar rats per group (body weight: 205-255 g) orally received 50 mg/Kg of the test compound, and the blood pressure (tail cuff method) and the heart beats were measured with the passage of time in order to elucidate influences of the test compound on the circulatory system.

[4] = Solubility Test (water-solubility)
[5] = test system: human platelet PDE II; test: Inhibitory activity on phosphodiesterase, platelet PDE II (cGMP); type: biochemical; details: cGMP substrate
Experimental: as §3, §4

[6] = test system: platelet aggregation (human platelet-rich-plasma); test: Test of Platelet Aggregation Inhibition (in vitro), human PRP; type: cell-based; details: human blood, ADP-induced
Experimental: as §1, §2

[7] = test system: platelet aggregation; test: Test of Platelet Aggregation Inhibition (ex vivo, p.o.); type: in vivo, Wistar Imamichi rat; details: for inhibition at 10 mg/kg: Platelet, po, ex vivo, rat, 10 mg/Kg p.o., 1 hour, *P<0.05, **P<0.01, ***P<0.001
Experimental: One hour later, citrated blood was taken from the heart, and platelet aggregation was determined in the same manner as described in the in vitro test. The inhibitory activity was compared with that of control and expressed in terms of percent inhibition.

[8] = target: human heart PDE III; test: Inhibitory activity on phosphodiesterase, heart PDE III (cAMP); type: biochemical; details: for IC50: cAMP substrate
Experimental: as §3, §4

[9] = target: human platelet PDE I (Homo sapiens, UniProt O76074); test: Inhibitory activity on phosphodiesterase, platelet PDE I (cGMP); type: biochemical; details: cGMP substrate
Experimental: as §3, §4

[10] = test system: platelet aggregation induced by B16 melanoma cells; test: Inhibition on Platelet Aggregation Induced by Cancer Cells (in vitro), B16; type: cell-based, C57BL/6 mouse; parameters: key: +: Aggregation was observed.; ±: Aggregation was partially inhibited.; -: No aggregation was observed
Experimental: (§5) It is known nowadays that platelet aggregation plays an important role in metastasis of cancers. […] Tanaka et al. The effect of the compounds of this invention to inhibit the above-described cancer cell-induced platelet aggregation was tested as follows. Cell suspensions of B16 or 3LL were prepared according to the method of Tanaka et al, Invarsion and Metastasis, Vol. 2, 289 (1982). […] Platelet aggregation of the sample system was determined according to the method of Born, and the platelet aggregation inhibitory activity was expressed by the following scale: […]

[11] = target: human platelet PDE III (Homo sapiens, UniProt Q14432); test: biochemical; details: for IC50: cAMP substrate
Chain of human platelet PDE III (Q14432 whole entry): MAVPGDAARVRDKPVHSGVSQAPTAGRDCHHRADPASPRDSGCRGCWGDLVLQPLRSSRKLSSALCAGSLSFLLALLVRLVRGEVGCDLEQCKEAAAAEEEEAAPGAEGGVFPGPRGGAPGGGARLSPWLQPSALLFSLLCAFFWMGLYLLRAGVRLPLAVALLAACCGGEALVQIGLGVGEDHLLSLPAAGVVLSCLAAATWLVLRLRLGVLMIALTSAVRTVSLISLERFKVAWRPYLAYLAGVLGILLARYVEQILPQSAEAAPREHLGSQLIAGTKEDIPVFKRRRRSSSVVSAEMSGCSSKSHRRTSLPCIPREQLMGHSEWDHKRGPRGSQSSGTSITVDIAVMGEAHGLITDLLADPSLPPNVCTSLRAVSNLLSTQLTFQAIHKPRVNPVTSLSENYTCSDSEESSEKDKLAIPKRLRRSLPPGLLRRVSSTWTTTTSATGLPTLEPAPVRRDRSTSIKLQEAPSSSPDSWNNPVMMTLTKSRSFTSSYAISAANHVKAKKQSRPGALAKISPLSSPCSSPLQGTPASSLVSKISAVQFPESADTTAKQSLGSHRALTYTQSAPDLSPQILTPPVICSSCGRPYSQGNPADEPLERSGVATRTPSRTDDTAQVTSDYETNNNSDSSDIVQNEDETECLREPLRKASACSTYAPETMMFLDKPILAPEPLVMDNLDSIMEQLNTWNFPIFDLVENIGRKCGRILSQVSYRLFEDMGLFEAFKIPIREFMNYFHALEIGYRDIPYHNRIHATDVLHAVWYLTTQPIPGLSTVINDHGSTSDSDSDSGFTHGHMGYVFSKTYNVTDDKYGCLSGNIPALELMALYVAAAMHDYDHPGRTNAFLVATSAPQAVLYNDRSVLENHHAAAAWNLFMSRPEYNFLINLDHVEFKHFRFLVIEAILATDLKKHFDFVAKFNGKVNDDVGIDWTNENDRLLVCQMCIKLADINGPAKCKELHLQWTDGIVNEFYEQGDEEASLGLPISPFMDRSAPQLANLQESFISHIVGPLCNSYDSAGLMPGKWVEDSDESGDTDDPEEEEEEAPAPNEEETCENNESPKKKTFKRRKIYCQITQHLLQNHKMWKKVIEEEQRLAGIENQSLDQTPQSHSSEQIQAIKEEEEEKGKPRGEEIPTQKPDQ
Experimental: as §3, §4

[12] = test system: platelet aggregation induced by Lewis lung cancer (3LL) cells; test: Inhibition on Platelet Aggregation Induced by Cancer Cells (in vitro), 3LL; type: cell-based, C57BL/6 mouse; parameters: key: +: Aggregation was observed.; ±: Aggregation was partially inhibited.; -: No aggregation was observed
Experimental: as §5

[13] = test system: platelet aggregation; test: Test of Platelet Aggregation Inhibition (ex vivo; i.v.); type: in vivo, Wistar Imamichi rat; details: iv, 0.25 h, rat, i.v. 67 μg/Kg/min, 15 min
Experimental: As test animals, 5 to 6 Wistar Imamichi rats (body weight: about 260 g) that had been allowed food and water ad libitum were used per group. The test compound was dissolved in a physiological saline solution and continuously injected over a period of 10 or 15 minutes to the rats under anesthesia with pentobarbital through the femoral vein. Immediately after completion of the administration, citrated blood was collected from the heart, and platelet aggregation was determined in the same manner as in the test in vitro in Test Example 2.

[14] = ADP-induced, read-out: IC50, platelet aggregation inhibition in vitro, ADP
[15] = collagen-induced, read-out: IC50, platelet aggregation inhibition in vitro, Collagen
[16] = ADP, read-out: ex vivo % inhibition of platelet aggregation, ADP
[17] = collagen, read-out: ex vivo % inhibition of platelet aggregation, Collagen

SMILES	IC50 [1, 14] [µM]	IC50 [1, 15] [µM]	IC50 [2] [µM]	Increase in Heart Beat ([3]; 1 hr, **P<0.01) [%]	Reduction in Blood Pressure ([3]; 1 hr, *P<0.05, **P<0.01) [%]	Increase in Heart Beat ([3]; 2 hr, **P<0.01) [%]	Reduction in Blood Pressure ([3]; 2 hr, *P<0.05, **P<0.01) [%]	Increase in Heart Beat ([3]; 3 hr, **P<0.01) [%]	Reduction in Blood Pressure ([3]; 3 hr, **P<0.01) [%]	Increase in Heart Beat ([3]; 5 hr, **P<0.01) [%]	Reduction in Blood Pressure ([3]; 5 hr, **P<0.01) [%]	Increase in Heart Beat ([3]; 6 hr, *P<0.05, **P<0.01) [%]	Reduction in Blood Pressure ([3]; 6 hr, *P<0.05, **P<0.01) [%]	solubility ([4]; tap water, pH 2) [mg/mL]	IC50 [5] [µM]	IC50 [6] [µM]	inhibition at 10 mg/kg [7, 16] [%]	inhibition at 10 mg/kg [7, 17] [%]	IC50 [8] [µM]	IC50 [9] [µM]	further results
O=C1CN2Cc3c(ccc(Cl)c3Cl)N=C2N1 [BL-4162, 6,7-dichloro-1,2,3,5-tetrahydro[2,1-b]quinazolin-2-one]	0.8	0.02	> 10	28	11	37	16	31	17	31	14	31	13	< 0.01	3.3	1.2	8	53	0.096	3.9	Increase in Heart Beat ([3]; 4 hr, **P<0.01): 37%; Reduction in Blood Pressure ([3]; 4 hr, **P<0.01): 14%; solubility ([4]; water, pH 4, water): < 0.01 mg/mL; aggregation inhibitory activity in ADP- or collagen-induced aggregation (in words) ([7]; orally administered, Table 2): widely varied depending on the individual animal and, therefore, cannot be regarded significant
Cl.Cl.O.O=C1CN2Cc3cc(N4CCCCC4)c(Cl)cc3N=C2N1 [Example 16, 8-Chloro-7-piperidino-1,2,3,5-tetrahydroimidazo[2,1-b] quinazolin-2-one dihydrochloride monohydrate]	0.4	0.46	> 10												> 30	12.5	34	76	0.095	30	Inhibition on platelet aggregation induced by B16 ([10]; sample concn. 0.3 μM): ±; Inhibition on platelet aggregation induced by B16 ([10]; sample concn. 1 μM): -; water-solubility (in words) [4]: low water-solubility; IC50 Ratio (PDE II) Heart/Platelet [11]: 11.6; selectivity to platelet PDE (in words) ([11]; Table 6): high selectivity to platelet PDE; IC50 [11]: 0.0082 µM; Inhibition on platelet aggregation induced by 3LL ([12]; sample concn. 1 μM): +; Inhibition on platelet aggregation induced by 3LL ([12]; sample concn. 3 μM): -; Inhibition on platelet aggregation induced by 3LL ([12]; sample concn. 10 μM): -
CN(C)c1ccc2c(c1)CN1CC(=O)NC1=N2 [Example 21, 7-dimethylamino-1,2,3,5-tetrahydroimidazo[2,1-b]quinazolin-2-one]	5.4	1.4	> 100	19	1.0	22	5.0	20	5.0	23	5.0	15	1.0	> 100	57	7.2	29	48	1.4	70	platelet aggregation inhibitory activity (in words) [1]: strong platelet aggregation inhibitory activity; water-solubility (in words) [4]: water-soluble; solubility ([4]; water, pH 4, water): 0.18 mg/mL (≈ 782 µM); inhibition at 0.067 mg/kg ([13]; ADP, *P<0.05, read-out: Percent Inhibition of platelet aggregation, ADP): 23%; inhibition at 0.067 mg/kg ([13]; collagen, *P<0.05, read-out: Percent Inhibition of platelet aggregation, Collagen): 71%; IC50 Ratio (PDE II) Heart/Platelet ([11]; Heart/Platelet): 1.1; IC50 [11]: 1.3 µM; activity on heart PDE (in words) ([8]; Table 6): strong activity on heart PDE
